The target of assay [1] is Human α2δ-1 subunit of Cav2.2 calcium channel (Homo sapiens, UniProt P54289). Briefly: Human α2δ-1 subunit of Cav2.2 calcium channel assay ([3H]-gabapentin binding). To be noted: binding to the α2δ-1 subunit of voltage-gated calcium channels expressed as Ki; + also covers inhibition between 1% and 50%. The protocol:
Biological Activity Pharmacological Study Human α2δ-1 Subunit of Cav2.2 Calcium Channel Assay
Human α2δ-1 enriched membranes (2.5 μg) were incubated with 15 nM of radiolabeled [^3H]-Gabapentin in assay buffer containing Hepes-KOH 10 mM, pH 7.4. NSB (non specific binding) was measured by adding 10 μM pregabalin. The binding of the test compound was measured at either one concentration (% inhibition at 1 or 10 μM) or five different concentrations to determine affinity values (Ki). After 60 min incubation at 27° C., binding reaction was terminated by filtering through Multiscreen GF/C (Millipore) presoaked in 0.5% polyethyleneimine in Vacuum Manifold Station, followed by 3 washes with ice-cold filtration buffer containing 50 mM Tris-HCl, pH 7.4. Filter plates were dried at 60° C. for 1 h and 30 μL of scintillation cocktail were added to each well before radioactivity reading. Readings were performed in a Trilux 1450 Microbeta radioactive counter (Perkin Elmer).

Another assay has as its target T1, Human σ1 receptor (Homo sapiens, UniProt Q99720).
T1 construct: expressed in transfected cells; host or cells: HEK-293
Briefly: Human σ1 receptor radioligand assay ([3H](+)-pentazocine binding, transfected HEK-293 membranes). To be noted: binding to σ1 receptor expressed as Ki; + also covers inhibition between 1% and 50%; read-out: σ-1 binding. The protocol: Human σ1 Receptor Radioligand Assay
Transfected HEK-293 membranes (7 μg) were incubated with 5 nM of [^3H](+)-pentazocine in assay buffer containing Tris-HCl 50 mM at pH 8. NBS (non-specific binding) was measured by adding 10 μM haloperidol. The binding of the test compound was measured at either one concentration (% inhibition at 1 or 10 μM) or five different concentrations to determine affinity values (Ki). Plates were incubated at 37° C. for 120 minutes. After the incubation period, the reaction mix was then transferred to MultiScreen HTS, FC plates (Millipore), filtered and plates were washed 3 times with ice-cold 10 mM Tris-HCL (pH7.4). Filters were dried and counted at approximately 40% efficiency in a MicroBeta scintillation counter (Perkin-Elmer) using EcoScint liquid scintillation cocktail.

pKi: −log10 of the molar value.

Sequence of Human α2δ-1 subunit of Cav2.2 calcium channel (P54289 25-1103): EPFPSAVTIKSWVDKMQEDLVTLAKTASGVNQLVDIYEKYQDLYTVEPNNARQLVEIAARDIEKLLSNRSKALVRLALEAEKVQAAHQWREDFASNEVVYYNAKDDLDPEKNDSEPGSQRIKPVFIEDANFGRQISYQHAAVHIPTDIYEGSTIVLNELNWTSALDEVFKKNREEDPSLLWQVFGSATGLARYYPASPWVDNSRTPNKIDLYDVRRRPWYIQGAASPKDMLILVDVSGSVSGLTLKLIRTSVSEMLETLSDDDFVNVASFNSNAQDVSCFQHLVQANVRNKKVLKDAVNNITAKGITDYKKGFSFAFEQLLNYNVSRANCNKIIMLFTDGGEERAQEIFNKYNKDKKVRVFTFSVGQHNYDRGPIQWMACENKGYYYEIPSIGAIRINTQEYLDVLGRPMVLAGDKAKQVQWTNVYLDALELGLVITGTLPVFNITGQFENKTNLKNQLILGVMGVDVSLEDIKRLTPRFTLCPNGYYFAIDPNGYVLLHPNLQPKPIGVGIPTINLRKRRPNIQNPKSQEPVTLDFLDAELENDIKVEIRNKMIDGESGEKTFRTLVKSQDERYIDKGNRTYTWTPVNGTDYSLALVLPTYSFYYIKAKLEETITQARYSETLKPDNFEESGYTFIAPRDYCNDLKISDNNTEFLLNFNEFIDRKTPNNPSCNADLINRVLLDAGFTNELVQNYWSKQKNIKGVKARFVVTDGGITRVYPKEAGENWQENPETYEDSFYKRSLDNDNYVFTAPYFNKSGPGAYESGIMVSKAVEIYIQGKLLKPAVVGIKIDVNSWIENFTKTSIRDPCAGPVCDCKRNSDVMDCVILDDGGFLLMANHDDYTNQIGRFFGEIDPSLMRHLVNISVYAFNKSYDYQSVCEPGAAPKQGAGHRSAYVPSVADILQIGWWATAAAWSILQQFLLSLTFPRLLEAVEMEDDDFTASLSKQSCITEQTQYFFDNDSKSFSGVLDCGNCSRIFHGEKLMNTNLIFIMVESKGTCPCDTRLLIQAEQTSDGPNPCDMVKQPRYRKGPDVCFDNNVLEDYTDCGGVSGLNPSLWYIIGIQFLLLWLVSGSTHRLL
T1 sequence (Q99720 whole entry): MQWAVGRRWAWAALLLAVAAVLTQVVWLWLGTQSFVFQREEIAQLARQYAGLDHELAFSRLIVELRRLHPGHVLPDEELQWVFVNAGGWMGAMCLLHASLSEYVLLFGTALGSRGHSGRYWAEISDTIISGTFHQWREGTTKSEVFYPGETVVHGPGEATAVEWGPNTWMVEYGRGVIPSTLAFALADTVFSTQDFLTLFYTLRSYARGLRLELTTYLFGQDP

For `Cc1cc2nccc(C3CCCN(Cc4cccc(O)c4)C3)n2n1` (stereo not shown) [Example 68, 3-((3-(2-Methylpyrazolo[1,5-a]pyrimidin-7-yl)piperidin-1-yl)methyl)phenol], the pKi in assay [1] was less than 5.30; on Human σ1 receptor, less than 6.00.

Turning to `c1ccc(CNCc2cc3nccc(C4CCCN(Cc5ccccc5)C4)n3n2)cc1` (stereo not shown) [Example 94, N-Benzyl-1-(7-(1-benzylpiperidin-3-yl)pyrazolo[1,5-a]pyrimidin-2-yl)methanamine], the pKi is 5.30 to 6.30 in assay [1] and less than 6.00 at Human σ1 receptor.

On to `Cc1nnc(-c2cccc(-c3c(C)nn4c(C5CCCN(Cc6ccccc6)C5)ccnc34)c2)o1` (stereo not shown) [Example 56, 2-(3-(7-(1-Benzylpiperidin-3-yl)-2-methylpyrazolo[1,5-a]pyrimidin-3-yl)phenyl)-5-methyl-1,3,4-oxadiazole], for which the results for the pKi (in assay [1]; on Human σ1 receptor) were 5.30 to 6.30 and less than 6.00, respectively.

With `Cc1nn2c(C3CCCN(Cc4ccccc4)C3)ccnc2c1N(C)Cc1ccccc1` (stereo not shown) [Example 143, N-Benzyl-7-(1-benzylpiperidin-3-yl)-N,2-dimethylpyrazolo[1,5-a]pyrimidin-3-amine], the pKi was less than 5.30 in assay [1] and 6.00 to 6.30 at Human σ1 receptor.

For the compound `Cc1nn2c([C@H]3CCCN(Cc4ccc(F)cc4F)C3)ccnc2c1CNCC1CCOCC1` [Example 240, (S)-1-(7-(1-(2,4-Difluorobenzyl)piperidin-3-yl)-2-methylpyrazolo[1,5-a]pyrimidin-3-yl)-N-((tetrahydro-2H-pyran-4-yl)methyl)methanamine], the pKi is 5.30 to 6.30 in assay [1] and more than 6.30 on Human σ1 receptor.

For the compound `Nc1ccc(-c2cc3nccc(C4CCCN(Cc5ccccc5)C4)n3n2)cn1` (stereo not shown) [Example 24, 5-(7-(1-Benzylpiperidin-3-yl)pyrazolo[1,5-a]pyrimidin-2-yl)pyridin-2-amine], the pKi in assay [1] is 5.30 to 6.30; on Human σ1 receptor, less than 6.00.

Take `Cc1nn2c([C@@H]3CCCN(Cc4ccc(Cl)cc4)C3)ccnc2c1CN(C)CC1CC1` [Example 227, (R)-1-(7-(1-(4-Chlorobenzyl)piperidin-3-yl)-2-methylpyrazolo[1,5-a]pyrimidin-3-yl)-N-(cyclopropylmethyl)-N-methylmethanamine]: the pKi in assay [1] is less than 5.30; on Human σ1 receptor, more than 6.30.

With `Cc1nn2c(C3CCCN(Cc4ccc(C(F)(F)F)cc4)C3)ccnc2c1-c1ccncc1` (stereo not shown) [Example 126, 2-Methyl-3-(pyridin-4-yl)-7-(1-(4-(trifluoromethyl)benzyl)piperidin-3-yl)pyrazolo[1,5-a]pyrimidine], the pKi in assay [1] was less than 5.30; on Human σ1 receptor it was less than 6.00.

As for `Cc1cnc2c(Br)c(C)nn2c1C1CCCN(Cc2ccccc2)C1` (stereo not shown) [Example 6, 7-(1-Benzylpiperidin-3-yl)-3-bromo-2,6-dimethylpyrazolo[1,5-a]pyrimidine], the pKi is 5.30 to 6.30 in assay [1] and less than 6.00 at Human σ1 receptor.

As for `Cc1cc2nccc(C3CCCN(CCc4ccccc4)C3)n2n1` (stereo not shown) [Example 67, 2-Methyl-7-(1-phenethylpiperidin-3-yl)pyrazolo[1,5-a]pyrimidine], the pKi was less than 5.30 in assay [1] and less than 6.00 on Human σ1 receptor.

Consider `Cc1nn2c(C3CCCN(Cc4ccc(Cl)cc4)C3)ccnc2c1CNCc1ccn(C)n1` (stereo not shown) [Example 151, 1-(7-(1-(4-Chlorobenzyl)piperidin-3-yl)-2-methylpyrazolo[1,5-a]pyrimidin-3-yl)-N-((1-methyl-1H-pyrazol-3-yl)methyl)methanamine], for which the pKi in assay [1] was 5.30 to 6.30; on Human σ1 receptor, more than 6.30.

For the compound `Cc1cc2nccc(C3CCCN(Cc4ccccc4)C3)n2n1` (stereo not shown) [Example 3, 7-(1-Benzylpiperidin-3-yl)-2-methylpyrazolo[1,5-a]pyrimidine], the values for the pKi (in assay [1]; on Human σ1 receptor) were 5.30 to 6.30 and 6.00 to 6.30, respectively.

`Cc1ccc(CNCc2c(C)nn3c(C4CCCN(Cc5ccc(Cl)cc5)C4)ccnc23)s1` (stereo not shown) [Example 150, 1-(7-(1-(4-Chlorobenzyl)piperidin-3-yl)-2-methylpyrazolo[1,5-a]pyrimidin-3-yl)-N-((5-methylthiophen-2-yl)methyl)methanamine]: the figures for the pKi (in assay [1]; at Human σ1 receptor) were 5.30 to 6.30 and more than 6.30, respectively.

`Cc1nn2c(C3CCCN(Cc4ccccc4)C3)ccnc2c1-c1ccc(N(C)C)cc1` (stereo not shown) [Example 47, 4-(7-(1-Benzylpiperidin-3-yl)-2-methylpyrazolo[1,5-a]pyrimidin-3-yl)-N,N-dimethylaniline]: the pKi in assay [1] is less than 5.30; on Human σ1 receptor it was less than 6.00.

With `Cc1nn2c(C3CCCN(Cc4ccc(Cl)cc4)C3)ccnc2c1CN(C)Cc1ccccc1` (stereo not shown) [Example 145, N-Benzyl-1-(7-(1-(4-chlorobenzyl)piperidin-3-yl)-2-methylpyrazolo[1,5-a]pyrimidin-3-yl)-N-methylmethanamine], the values for the pKi (in assay [1]; at Human σ1 receptor) were 5.30 to 6.30 and more than 6.30, respectively.

In the case of `Cc1nn2c(C3CCCN(Cc4ccccc4)C3)ccnc2c1N1CCCC1` (stereo not shown) [Example 89, 7-(1-Benzylpiperidin-3-yl)-2-methyl-3-(pyrrolidin-1-yl)pyrazolo[1,5-a]pyrimidine], the pKi was 5.30 to 6.30 in assay [1] and 6.00 to 6.30 on Human σ1 receptor.

As to `CNCc1cn(-c2cccc(-c3c(C)nn4c(C5CCCN(Cc6ccccc6)C5)ccnc34)c2)nn1` (stereo not shown) [Example 61, 1-(1-(3-(7-(1-Benzylpiperidin-3-yl)-2-methylpyrazolo[1,5-a]pyrimidin-3-yl)phenyl)-1H-1,2,3-triazol-4-yl)-N-methylmethanamine], the pKi in assay [1] was 5.30 to 6.30; at Human σ1 receptor, less than 6.00.

On to `Cn1cc(-c2cc3nccc(C4CCCN(Cc5ccccc5)C4)n3n2)cn1` (stereo not shown) [Example 25, 7-(1-Benzylpiperidin-3-yl)-2-(1-methyl-1H-pyrazol-4-yl)pyrazolo[1,5-a]pyrimidine], for which the pKi in assay [1] was less than 5.30; at Human σ1 receptor, less than 6.00.

Regarding `CCc1nn2c(C3CCCN(Cc4ccccc4)C3)ccnc2c1Br` (stereo not shown) [Example 11, 7-(1-Benzylpiperidin-3-yl)-3-bromo-2-ethylpyrazolo[1,5-a]pyrimidine], the pKi is 5.30 to 6.30 in assay [1] and more than 6.30 at Human σ1 receptor.

Regarding `Cc1cc2nccc(C3CCCN(Cc4ccccn4)C3)n2n1` (stereo not shown) [Example 66, 2-Methyl-7-(1-(pyridin-2-ylmethyl)piperidin-3-yl)pyrazolo[1,5-a]pyrimidine], the figures for the pKi (in assay [1]; on Human σ1 receptor) were less than 5.30 and less than 6.00, respectively.

Take `Oc1ncccc1-c1cc2nccc(C3CCCN(Cc4cccc(Cl)c4)C3)n2n1` (stereo not shown) [Example 117, 3-(7-(1-(3-Chlorobenzyl)piperidin-3-yl)pyrazolo[1,5-a]pyrimidin-2-yl)pyridin-2-ol]: the pKi in assay [1] is less than 5.30; at Human σ1 receptor, less than 6.00.

For the compound `Cc1nn2c(C3CCCN(Cc4ccc(Cl)cc4)C3)ccnc2c1CNCC1CCN(S(C)(=O)=O)CC1` (stereo not shown) [Example 179, 1-(7-(1-(4-Chlorobenzyl)piperidin-3-yl)-2-methylpyrazolo[1,5-a]pyrimidin-3-yl)-N-((1-(methylsulfonyl)piperidin-4-yl)methyl)methanamine], the pKi was 5.30 to 6.30 in assay [1] and 6.00 to 6.30 on Human σ1 receptor.

`CC(=O)Nc1c(C)nn2c(C3CCCN(Cc4ccccc4)C3)ccnc12` (stereo not shown) [Example 8, N-(7-(1-Benzylpiperidin-3-yl)-2-methylpyrazolo[1,5-a]pyrimidin-3-yl)acetamide]: the pKi in assay [1] is less than 5.30; at Human σ1 receptor, less than 6.00.

The record behind these values is patent US12617797B2, “Substituted pyrazolo [1,5-a]pyrimidines having multimodal activity against pain” (ESTEVE PHARMACEUTICALS, S.A., priority 2020, dated 2026).
